Reference: ChEMBL document CHEMBL1141448, “Curcumin induces high levels of topoisomerase I- and II-DNA complexes in K562 leukemia cells” (J Nat Prod, 2007)
Active and inactive are the calls of the source. The rule behind the calls is not given here.

Tests used:
K562 [1] = assay: Cytotoxicity against human K562 cells after 5 days by XTT assay; type: functional, cell-based; settings: K562, 120 h
[2] = biological target: T1, DNA topoisomerase 1 (Homo sapiens) (UniProt P11387); assay: Binding affinity to topoisomerase 1 in human K562 cells assessed as stability of topoisomerase 1-DNA complex at 70 uM after 48 hrs by TARDIS assay; type: cell-based
T1 sequence (whole entry): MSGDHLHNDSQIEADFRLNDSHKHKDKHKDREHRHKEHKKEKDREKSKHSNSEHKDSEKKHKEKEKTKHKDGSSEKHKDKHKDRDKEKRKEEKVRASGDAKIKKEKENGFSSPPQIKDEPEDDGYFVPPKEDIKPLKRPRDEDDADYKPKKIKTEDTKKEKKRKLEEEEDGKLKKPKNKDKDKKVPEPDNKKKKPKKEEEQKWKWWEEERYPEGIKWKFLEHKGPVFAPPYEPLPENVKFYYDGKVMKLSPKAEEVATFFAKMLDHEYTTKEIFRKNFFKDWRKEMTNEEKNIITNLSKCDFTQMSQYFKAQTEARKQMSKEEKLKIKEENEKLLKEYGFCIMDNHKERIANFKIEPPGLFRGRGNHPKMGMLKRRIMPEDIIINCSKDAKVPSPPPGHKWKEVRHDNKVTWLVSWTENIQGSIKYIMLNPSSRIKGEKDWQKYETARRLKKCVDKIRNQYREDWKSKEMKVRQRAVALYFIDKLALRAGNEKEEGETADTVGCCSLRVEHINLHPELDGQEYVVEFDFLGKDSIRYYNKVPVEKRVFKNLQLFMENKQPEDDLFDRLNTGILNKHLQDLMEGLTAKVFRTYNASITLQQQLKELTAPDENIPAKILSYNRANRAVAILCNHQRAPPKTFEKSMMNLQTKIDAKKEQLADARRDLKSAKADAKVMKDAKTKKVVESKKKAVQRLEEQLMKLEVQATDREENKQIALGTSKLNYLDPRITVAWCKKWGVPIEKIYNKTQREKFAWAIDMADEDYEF

K562 [3] = assay: Binding affinity to topoisomerase 2 in human K562 cells assessed as stability of topoisomerase 2-DNA complex at 70 uM after 48 hrs by TARDIS assay; type: cell-based
[4] = biological target: T1, DNA topoisomerase 1 (Homo sapiens); assay: Reversal of drug-induced topoisomerase 1-DNA complex in presence of N-acetyl cysteine at 70 uM after 24 hrs
[5] = Reversal of drug-induced topoisomerase 2-DNA complex in presence of N-acetyl cysteine at 70 uM after 24 hrs
K562 [6] = assay: Binding affinity to topoisomerase 2 in human K562 cells assessed as increase in etoposide-induced topoisomerase 2-DNA complex at 20-70 uM after 24 hrs by TARDIS assay; type: cell-based
K562 [7] = assay: Binding affinity to topoisomerase 2 in human K562 cells assessed as increase in […]-induced topoisomerase 2-DNA complex at 20-70 uM after 24 hrs by TARDIS assay; type: cell-based

| SMILES | IC50 (K562 [1]) [µM] | also measured |
| --- | --- | --- |
| COc1cc([C@@H]2c3cc4c(cc3[C@@H](O[C@@H]3O[C@@H]5CO[C@@H](C)O[C@H]5[C@H](O)[C@H]3O)[C@H]3COC(=O)[C@H]23)OCO4)cc(OC)c1O [ETOPOSIDE] | 0.32 | – |
| O=C(CC(=O)c1ccccc1)c1ccccc1 [DIBENZOYLMETHANE] | 30.9 | – |
| COc1cc(NS(C)(=O)=O)ccc1Nc1c2ccccc2nc2ccccc12 [AMSACRINE] | 0.023 | – |
| CC[C@@]1(O)C(=O)OCc2c1cc1n(c2=O)Cc2cc3ccccc3nc2-1 [CAMPTOTHECIN] | 0.04 | – |
| O=C1c2c(O)ccc(O)c2C(=O)c2c(NCCNCCO)ccc(NCCNCCO)c21 [MITOXANTRONE] | 0.0026 | – |
| CC(=O)[C@]1(O)Cc2c(O)c3c(c(O)c2[C@@H](O[C@H]2C[C@H](N)[C@H](O)[C@H](C)O2)C1)C(=O)c1ccccc1C3=O [IDARUBICIN] | 0.012 | – |
| COc1cc(/C=C/C(=O)O)ccc1O [FERULATE] | > 1000 | – |
| COc1cc(/C=C/C(=O)CC(=O)/C=C/c2ccc(O)c(OC)c2)ccc1O [CURCUMIN] | 6.81 | Activity [2]: Active; Activity (K562 [3]): Active; Activity [4]: Active; Activity [5]: Active; Activity (K562 [6]): Active; Activity (K562 [7]): Active |
